Converted amounts (≈) assume the structure as drawn. Read-outs that look alike come from different tables or passages of the source.
Test: Kinetic solubility
Format: physicochemical
Settings: kinetic from dmso stock
Procedure: Starting from a 20 mM stock solution of test compound in 100% DMSO, dilutions were prepared to a theoretical concentration of 400 μM in duplicates in phosphate-buffered saline pH 7.4 (PBS) (138 mM NaCl, 2.7 mM KCl, 10 mM K-phosphate) and 100 mM citrate buffer pH 3.0 with 2% final DMSO.
The experimental compound dilutions in PBS and citrate buffer were further allowed to equilibrate at 25° C. on a thermostatic orbital shaker for two hours and then centrifuged at 14000 rpm, 5 min and filtered through HTS filter plates using a vacuum manifold. The filtrates of test compounds were diluted 2-fold with acetonitrile with 2% DMSO before measuring. In parallel, compound dilutions in 50% acetonitrile/buffer were prepared to the theoretical concentrations of 0 μM (blank), 100 μM, 200 μM and 400 μM with 2% final DMSO to generate calibration curves.
Ondansetron (Sigma Aldrich USA, cat #03639) was used as a reference to control proper assay performance. 200 μl of each sample were transferred to a 96-well plate and solubility was measured in a 200-550 nm range (in steps of 5 nm). The measurements were performed using a Spectra Max Plus reader in UV-Vis mode. Acquisition and analysis of the data were performed using SoftMax Pro v.5.4 (Molecular Devices) and Excel 2010 data analysis software. Proper absorbance wavelengths for calculations were selected for each compound manually based on absorbance maximums (absolute absorbance unit values for the minimum and maximum concentration points within 0-3 OD range). Each of the final datasets was additionally visually evaluated by the operator and goodness of fit (R2) is calculated for each calibration curve.

[1] = aqueous buffer, kinetic solubility, phosphate-buffered saline pH 7.4, 2% DMSO, 25° C., two hours, read-out: PBS solubility, pH 7.4
[2] = citrate buffer, 25 °C, pH 3, aqueous buffer, read-out: Citrate buffer solubility, pH 3.0

| SMILES | solubility at 2 h [1] [µM] | solubility at 2 h [2] [µM] |
| --- | --- | --- |
| CCCCOC(=O)NS(=O)(=O)c1ccc(C(F)(F)F)cc1N1CCN(Cc2nc3ccccc3n2C)CC1 [Compound A-09, butyl N-[2-[4-[(1-methylbenzimidazol-2-yl)methyl]piperazin-1-yl]-4-(trifluoromethyl)phenyl]sulfonylcarbamate] | 318 (≈ 176 µg/mL) | ≥ 400 |
| CCCCNC(=O)NS(=O)(=O)c1ccc(C)cc1N1CCN(Cc2nc3ccccc3n2C)CC1 [Compound A-12, 1-butyl-3-[4-methyl-2-[4-[(1-methylbenzimidazol-2-yl)methyl]piperazin-1-yl]phenyl]sulfonyl-urea] | 54 (≈ 26.9 µg/mL) | ≥ 400 |
| CC(C)Cc1ccc(-c2nn[nH]n2)c(N2CCN(Cc3nc4ccccc4n3C)CC2)c1 [Compound A-20, 2-[[4-[5-isobutyl-2-(2H-tetrazol-5-yl)-phenyl]piperazin-1-yl]methyl]-1-meth-yl-benzimidazole] | ≥ 400 | ≥ 400 |
| CC(C)Oc1ccc(-c2nn[nH]n2)c(N2CCN(Cc3nc4ccccc4s3)CC2)c1 [Compound A-51, 2-[[4-[5-isoprop-oxy-2-(2H-tetrazol-5-yl)phenyl]piper-azin-1-yl]methyl]-1,3-benzothiazole] | ≥ 400 | 4 (≈ 1.74 µg/mL) |
| CCC1CN(Cc2cccnn2)CCN1c1cc(CC(C)C)cc(F)c1-c1nn[nH]n1 (stereo not drawn) [Compound A-181, 3-[[3-ethyl-4-[3-fluoro-5-isobutyl-2-(2H-tetrazol-5-yl)phenyl]piperazin-1-yl]methyl]pyridazine] | ≥ 400 | 388 (≈ 165 µg/mL) |
| CC(C)Cc1cc(F)c(-c2nn[nH]n2)c(N2CC(C)N(Cc3cccnn3)CC2C)c1 (stereo not drawn) [Compound A-183, 3-[[4-[3-fluoro-5-isobutyl-2-(2H-tetrazol-5-yl)phen-yl]-2,5-dimethyl-piperazin-1-yl]-methyl]pyridazine] | 383 (≈ 163 µg/mL) | 377 (≈ 160 µg/mL) |
